Where two headings read alike, the source gives them in different places.
How the values were obtained:
[1] = test system: IL-1 beta-induced coronary stenosis; conditions: porcine model, long term treatment; cited from earlier work
[2] = biological target: ROCK1 (Homo sapiens, UniProt Q13464); assay: ROCK assay (LabChip peptide phosphorylation), ROCK1; format: biochemical; conditions: 5 μM ATP, 1.5 μM peptide substrate
[3] = test system: three rat models of hypertension; conditions: cited from earlier work
[4] = test system: neointimal formation; conditions: rats, model similar to balloon injury; cited from earlier work

Sequence of ROCK1 (Q13464 whole entry, species assumed): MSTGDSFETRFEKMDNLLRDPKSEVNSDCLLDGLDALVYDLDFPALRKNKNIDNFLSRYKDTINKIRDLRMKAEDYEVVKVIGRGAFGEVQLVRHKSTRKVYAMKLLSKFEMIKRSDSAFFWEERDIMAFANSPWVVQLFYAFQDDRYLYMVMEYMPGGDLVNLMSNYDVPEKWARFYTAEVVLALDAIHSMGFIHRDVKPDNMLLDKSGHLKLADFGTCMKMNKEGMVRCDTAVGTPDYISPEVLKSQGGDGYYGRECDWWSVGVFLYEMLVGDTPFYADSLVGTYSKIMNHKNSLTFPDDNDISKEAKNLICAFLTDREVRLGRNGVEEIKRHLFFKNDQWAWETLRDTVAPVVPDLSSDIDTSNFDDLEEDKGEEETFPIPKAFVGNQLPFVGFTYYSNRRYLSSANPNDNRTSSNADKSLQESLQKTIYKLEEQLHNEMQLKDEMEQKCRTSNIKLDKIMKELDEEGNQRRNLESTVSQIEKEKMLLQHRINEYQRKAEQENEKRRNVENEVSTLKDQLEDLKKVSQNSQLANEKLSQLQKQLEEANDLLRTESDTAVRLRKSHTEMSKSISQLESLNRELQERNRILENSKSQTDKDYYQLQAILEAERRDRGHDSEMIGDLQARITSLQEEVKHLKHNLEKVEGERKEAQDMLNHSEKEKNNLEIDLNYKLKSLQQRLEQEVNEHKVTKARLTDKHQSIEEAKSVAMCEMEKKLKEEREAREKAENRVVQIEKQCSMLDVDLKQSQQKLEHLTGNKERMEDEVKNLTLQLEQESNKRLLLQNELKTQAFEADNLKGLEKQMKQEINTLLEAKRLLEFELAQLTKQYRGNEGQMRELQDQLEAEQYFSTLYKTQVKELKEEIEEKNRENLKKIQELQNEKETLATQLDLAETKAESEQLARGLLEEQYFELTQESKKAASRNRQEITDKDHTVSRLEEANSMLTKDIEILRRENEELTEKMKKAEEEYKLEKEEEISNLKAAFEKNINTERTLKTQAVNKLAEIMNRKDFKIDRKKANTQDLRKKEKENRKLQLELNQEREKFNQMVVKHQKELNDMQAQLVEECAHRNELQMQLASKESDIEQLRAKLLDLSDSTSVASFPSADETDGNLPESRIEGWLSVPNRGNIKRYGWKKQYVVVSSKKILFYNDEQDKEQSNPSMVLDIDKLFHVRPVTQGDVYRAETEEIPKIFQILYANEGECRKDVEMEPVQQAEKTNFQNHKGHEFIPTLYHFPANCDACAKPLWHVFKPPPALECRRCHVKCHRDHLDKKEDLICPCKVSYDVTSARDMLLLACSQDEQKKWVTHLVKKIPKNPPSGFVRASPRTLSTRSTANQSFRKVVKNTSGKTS

In the case of `O=S(=O)(c1cccc2cnccc12)N1CCCNCC1` [fasudil], the coronary constrictive remodeling [1] is listed as “promote a regression of coronary constrictive remodeling” and the coronary stenosis [1] is listed as “progressively reduce coronary stenosis”.
Work on `COc1cc(C(=O)NC(C)c2cc(F)cc(F)c2)ccc1-c1cn[nH]c1` (racemic) [Example 67, (+/−)-N-(1-(3,5-difluorophenyl)ethyl)-3-methoxy-4-(1H-pyrazol-4-yl)benzamide] yielded an IC50 [2] of 26.5 nM.
In the case of `C[C@@H](N)[C@H]1CC[C@H](C(=O)Nc2ccncc2)CC1` [Example Y-27632, Y-27632], the blood pressure ([3]; control rats) is listed as “only a minor effect on blood pressure”, the blood pressure ([3]; spontaneously hypertensive rat, renal hypertensive rat and deoxycortisone acetate salt hypertensive rat models) is listed as “significantly decrease blood pressure” and the neointimal formation [4] is listed as “inhibited neointimal formation”.
For `COc1cc(C(=O)NCc2cccc(O)c2)ccc1-c1cn[nH]c1` [Example 6, N-(3-hydroxybenzyl)-3-methoxy-4-(1H-pyrazol-4-yl)benzamide], the IC50 [2] was 0.85 nM.
In the case of `CNC(=O)c1cccc(CNC(=O)c2ccc(-c3cn[nH]c3)c(OC)c2)c1` [Example 65, 3-methoxy-N-(3-(methylcarbamoyl)benzyl)-4-(1H-pyrazol-4-yl)benzamide], the IC50 [2] is reported as 3.05 nM.
`COC(=O)c1cccc(CNC(=O)c2ccc(-c3cn[nH]c3)c(OC)c2)c1` [Example 8, methyl 3-((3-methoxy-4-(1H-pyrazol-4-yl)benzamido)methyl)benzo-ate] showed an IC50 [2] of 2.63 nM.

Reference: patent publication US9126944B2, “Phenylpyrazole derivatives as potent ROCK1 and ROCK2 inhibitors” (BRISTOL-MYERS SQUIBB COMPANY, priority 2013, dated 2015)
